Literature values, collected in patent US8071133B2, “Oral dosage forms of water insoluble drugs and methods of making the same” (Stiefel Laboratories, Inc., priority 2001, dated 2011).

- solubility in water: approximately 10 microgram per mL
SMILES: CC(C)(C)NC(=O)[C@@H]1C[C@@H]2CCCC[C@@H]2CN1C[C@@H](O)[C@H](Cc1ccccc1)NC(=O)[C@H](CC(N)=O)NC(=O)c1ccc2ccccc2n1 [Saquinavir]
